Measured values taken from ChEMBL document CHEMBL2375214, “Evaluation of anti-HCV activity and SAR study of (+)-lycoricidine through targeting of host heat-stress cognate 70 (Hsc70)” (Bioorg Med Chem Lett, 2013).

Columns and labels:
Hepatitis C virus [1] = assay: Selectivity index, ratio of CC50 for human Huh7.5 cells to EC50 for Hepatitis C virus; format: toxicity, cell-based, Huh-7; settings: read-out: Ratio CC50/EC50
Hepatitis C virus [2] = assay: Antiviral activity against Hepatitis C virus infected in human Huh7.5 cells after 96 hrs by fluorescence microscopic analysis; format: functional, organism-based, Hepacivirus hominis; settings: huh-7
[3] = Cytotoxicity against human Huh7.5 cells treated after 96 hrs by MTT assay; format: cell-based, Huh-7
[4] = Down regulation of Hsc70 protein expression in Hepatitis C virus-infected human Huh7.5 cells […] at 0.1 ug/mL after 24 hrs by Western blotting analysis relative to control; format: functional, cell-based; design: scale not given: the % may be the effect or the level left; settings: Huh-7
Huh-7 [5] = assay: Inhibition of Hsc70 mRNA expression in Hepatitis C virus-infected human Huh7.5 cells at 100 ug/mL after 24 hrs by RT-PCR analysis relative to control; format: functional; settings: Huh-7, 24 h
[6] = Down regulation of Hsc70 protein expression in Hepatitis C virus-infected human Huh7.5 cells at 0.1 ug/mL after 24 hrs by Western blotting analysis relative to actin expression; format: functional, cell-based; settings: Huh-7
[7] = Down regulation of Hsc70 protein expression in Hepatitis C virus-infected human Huh7.5 cells at 0.1 ug/mL after 24 hrs by Western blotting analysis relative to control; format: functional, cell-based; settings: Huh-7
[8] = Down regulation of Hsc70 protein expression in Hepatitis C virus-infected human Huh7.5 cells […] at 0.1 ug/mL after 24 hrs by Western blotting analysis relative to actin expression; format: functional, cell-based; settings: Huh-7
Huh-7 [9] = assay: Inhibition of Hsc70 mRNA expression in Hepatitis C virus-infected human Huh7.5 cells at 10 ug/mL after 24 hrs by RT-PCR analysis relative to control; format: functional; settings: Huh-7, 24 h
[10] = Down regulation of Hsc70 protein expression in Hepatitis C virus-infected human Huh7.5 cells at 1 ug/mL after 24 hrs by Western blotting analysis relative to actin expression; format: functional, cell-based; settings: Huh-7
[11] = Down regulation of Hsc70 protein expression in Hepatitis C virus-infected human Huh7.5 cells […] at 1 ug/mL after 24 hrs by Western blotting analysis relative to actin expression; format: functional, cell-based; settings: Huh-7
[12] = Down regulation of Hsc70 protein expression in Hepatitis C virus-infected human Huh7.5 cells […] at 10 ug/mL after 24 hrs by Western blotting analysis relative to actin expression; format: functional, cell-based; settings: Huh-7
[13] = Down regulation of Hsc70 protein expression in Hepatitis C virus-infected human Huh7.5 cells at 100 ug/mL after 24 hrs by Western blotting analysis relative to actin expression; format: functional, cell-based; settings: Huh-7
[14] = Down regulation of Hsc70 protein expression in Hepatitis C virus-infected human Huh7.5 cells at 10 ug/mL after 24 hrs by Western blotting analysis relative to actin expression; format: functional, cell-based; settings: Huh-7
[15] = Down regulation of Hsc70 protein expression in Hepatitis C virus-infected human Huh7.5 cells […] at 100 ug/mL after 24 hrs by Western blotting analysis relative to actin expression; format: functional, cell-based; settings: Huh-7

Row | EC50 (Hepatitis C virus [2]) [µM] | SMILES | selectivity ratio (Hepatitis C virus [1]) | CC50 at 96 h [3] [µM] | other results
1 | 54 | CO[C@@H]1[C@H](OC)[C@@H](OC)C[C@@H]2c3cc4c(cc3C(=O)N(C)[C@@H]12)OCO4 | > 5.56 | > 300 | 
2 | 63 | CC(=O)O[C@H]1C=C2c3cc4c(cc3C(=O)N[C@H]2[C@@H]2OC(C)(C)O[C@@H]21)OCO4 | > 4.76 | > 300 | 
3 | > 83 | CCO[C@@H]1[C@H](OCC)[C@@H](OCC)C=C2c3cc4c(cc3C(=O)N(CC)[C@H]21)OCO4 | < 3.01 | 252 | 
4 | 15 | CCO[C@H]1C=C2c3cc4c(cc3C(=O)N(CC)[C@H]2[C@@H]2OC(C)(C)O[C@@H]21)OCO4 | 12 | 180 | 
5 | 43 | CCO[C@@H]1[C@H](OCC)[C@@H](OCC)C[C@@H]2c3cc4c(cc3C(=O)N(CC)[C@@H]12)OCO4 | > 6.98 | > 300 | 
6 | 93 | CO[C@H]1C=C2c3cc4c(cc3C(=O)N(C)[C@H]2[C@@H]2OC(C)(C)O[C@@H]21)OCO4 | 3.01 | 280 | 
7 | 85 | CCO[C@H]1C[C@@H]2c3cc4c(cc3C(=O)N(CC)[C@H]2[C@@H]2OC(C)(C)O[C@@H]21)OCO4 | 3.06 | 260 | 
8 | 75 | CC1(C)O[C@@H]2[C@H](O1)[C@@H](O[Si](C)(C)C(C)(C)C)C=C1c3cc4c(cc3C(=O)N[C@H]12)OCO4 | 2.13 | 160 | 
9 | 12 | C=CCO[C@@H]1[C@H](OCC=C)[C@@H](OCC=C)C[C@@H]2c3cc4c(cc3C(=O)N(CC=C)[C@@H]12)OCO4 | 3.17 | 38 | 
10 | 65 | CC1(C)O[C@@H]2[C@H](O1)[C@@H](OCc1ccccc1)C=C1c3cc4c(cc3C(=O)N(Cc3ccccc3)[C@H]12)OCO4 | 3.08 | 200 | 
11 | 40 | C=CCO[C@H]1C=C2c3cc4c(cc3C(=O)N(CC=C)[C@H]2[C@@H]2OC(C)(C)O[C@@H]21)OCO4 | 6.25 | 250 | 
12 | 74 | C=CCO[C@@H]1[C@H](OCC=C)[C@@H](OCC=C)C=C2c3cc4c(cc3C(=O)N(CC=C)[C@H]21)OCO4 | 1.62 | 120 | 
13 | 22 | CO[C@@H]1[C@H](OC)[C@@H](OC)C=C2c3cc4c(cc3C(=O)N(C)[C@H]21)OCO4 | 8.2 | 180 | 

More lines, now with the values behind:

Row | SMILES | EC50 (Hepatitis C virus [2]) [µM] | selectivity ratio (Hepatitis C virus [1]) | CC50 at 96 h [3] [µM] | other results
14 | CC1(C)O[C@@H]2[C@H](O1)[C@@H](O)C=C1c3cc4c(cc3C(=O)N[C@H]12)OCO4 | 11 | 9.09 | 170 | 
15 | CC1(C)O[C@H]2[C@@H]3NC(=O)c4cc5c(cc4[C@H]3C[C@H](O)[C@H]2O1)OCO5 | > 11 | < 25.5 | 280 | 
16 | O[C@@H]1[C@H](O)[C@@H](O)C=C2c3cc4c(cc3CN[C@H]21)OCO4 | 33 | > 10.9 | > 360 | 
17 | O=C1N[C@H]2[C@H](O)[C@H](O)[C@@H](O)C[C@@H]2c2cc3c(cc21)OCO3 | 0.68 | 33.8 | 23 | 
18 | CO[C@H]1C[C@@H]2c3cc4c(cc3C(=O)N(C)[C@H]2[C@@H]2OC(C)(C)O[C@@H]21)OCO4 | 92 | 2.17 | 250 | 
19 | CC(=O)O[C@@H]1[C@H](OC(C)=O)[C@@H](OC(C)=O)C=C2c3cc4c(cc3C(=O)N[C@H]21)OCO4 [LYCORICIDINE TRIACETATE] | > 0.98 | < 33.8 | 33 | 
20 | O=C1N[C@@H]2C(=C[C@H](O)[C@@H](O)[C@H]2O)c2cc3c(cc21)OCO3 | 0.55 | 12.7 | 7.2 | Activity [4]: 6%; inhibition at 100 µg/mL (Huh-7 [5]): 83.1%; fold change (FC) [6]: 0.72; Activity [7]: 28%; fold change (FC) [8]: 0.06; inhibition at 10 µg/mL (Huh-7 [9]): 91.4%
21 | O[C@@H]1[C@@H](O)C=C2CCN3Cc4cc5c(cc4[C@H]1C23)OCO5 (stereo partly specified) |  |  |  | fold change (FC) [10]: 0.79; fold change (FC) [6]: 0.78; fold change (FC) [11]: 0.2; fold change (FC) [8]: 1.86
22 | O[C@H]1[C@@H]2c3cc4c(cc3CN3CC[C@@H](C[C@H]1O)[C@H]23)OCO4 |  |  |  | fold change (FC) [12]: 1.22; fold change (FC) [13]: 0.67; fold change (FC) [10]: 0.68; fold change (FC) [6]: 1.01; fold change (FC) [11]: 1.16; fold change (FC) [14]: 0.6; fold change (FC) [15]: 0.1; fold change (FC) [8]: 1.2
23 | CC(=O)O[C@H]1C[C@@H]2c3cc4c(cc3C(=O)N[C@H]2[C@@H]2OC(C)(C)O[C@@H]21)OCO4 | 89 | 3.03 | 270 | 
